Measurements published in patent US3954814A, “Alkadienylcyclopropanecarboxylates” (Sumitomo Chemical Company, Limited, priority 1971, dated 1976).
≈ marks a conversion by molar mass, not a printed value.

Legend:
Assay type in all cases: in vivo
[1] = test system: rice stem borer larvae; experiment: micro dropping (topical) test on hibernating rice stem borer larvae (Experimental Example 3); conditions: topical in acetone, head and tail of larvae, 3 days
Description: The present compounds (1), (4), (8), (10), (14), (15), (22), (32), (36), (38), (41), (44), (48), (50), (51), (52), (53), (61), (66), (68), (72), (73), (80), (81), (90) and (93) and chrysanthemic acid esters corresponding thereto were individually dissolved in acetone to prepare insecticides of various concentrations. Using a micro dropping means, each of the insecticides was dropped to the head and tail of hibernating rice stem borer larvae.

[2] = test system: house flies; experiment: Campbell's turn table oil spray test on house fly adults (Experimental Example 1); conditions: Musca domestica, 24 h, oil spray 5 ml, 10 min exposure, mortality after 1 day, read-out: LC50 (50 percent lethal concentration)
Experimental: The present compounds (1), (4), (8), (10), (14), (15), (20), (22), (32), (36), (38), (41), (44), (48), (50), (51), (52), (53), (61), (66), (68), (72), (73), (78), (80), (81), (90), (93) and (96), and chrysanthemic acid esters and pyrethric acid esters corresponding thereto were individually formulated by use of deodorized kerosene into oil sprays of various test concentrations.
Using the Campbell's turn table [disclosed in "Soap & Sanitary Chemicals," Vol. 14, No. 6, page 119 (1938)], 5 ml. of each of the oil sprays was sprayed. When 20 seconds had elapsed after the spraying, the shutter was opened, and adults of house flies (a group of about 100 flies) were exposed to the settling mist for 10 minutes and then transferred to an observation cage.
The above operation was repeated several times to measure the LC50 (50 percent lethal concentration) of each compound.

[3] = test system: Northern house mosquitoes; experiment: knock-down test of oil sprays on Northern house mosquito adults in (70 cm)^3 glass chamber (Experimental Example 2); conditions: concentration of oil spray 0.1%
Experimental: The present compounds (1), (6), (20), (22), (23), (25), (27), (29), (30), (31), (39), (42), (43), (45), (49), (53), (56), (62), (64), (78), (81), (83), (85), (87), (88) and (89), and chrysanthemic acid esters and pyrethric acid esters corresponding thereto were individually formulated by use of deodorized kerosene into oil sprays of various test concentrations.
About 20 adults of Northern house mosquitoes were liberated in a (70 cm)^3 glass chamber, and 0.7 ml. of each of the oil sprays was sprayed into the chamber under a pressure of 1.5 kg/cm^2 by use of a glass atomizer. Subsequently, the number of knocked-down mosquitoes was counted to calculate the KT50 (50 percent knock down time) of each compound.

In the case of `C#CCc1ccc(COC(=O)C2C(C=C(C)C)C2(C)C)cc1` (stereo not shown) [4-Propargylbenzyl chrysanthemate, reference compound], the “LD50 (50 percent lethal dose)” value [1] is reported as 0.99 γ/larva and the LC50 [2] is reported as 850 µg/mL (≈ 2870 µM).

`C=CC(C)=CC1C(C(=O)OCc2cc3c(o2)CCCC3)C1(C)C` (stereo not shown) [Present compound (10), 4,5-Tetramethylenefurfuryl 2',2'-dimethyl-3'-(2"-methyl-1",3"-butadienyl)-cyclopropanecarboxylate] was tested, and the “LD50 (50 percent lethal dose)” value [1] was 0.32 γ/larva and the LC50 [2] was 120 µg/mL (≈ 382 µM).

For `CC(C)=CC1C(C(=O)OCc2cc3c(o2)CCCC3)C1(C)C` (stereo not shown) [4,5-Tetramethylenefurfuryl chrysanthemate, reference compound], the “LD50 (50 percent lethal dose)” value [1] was 0.75 γ/larva and the LC50 [2] was 160 µg/mL (≈ 529 µM).

In the case of `C=CCc1cc(C)c(COC(=O)C2C(C=C(C)C=C)C2(C)C)c(C)c1` (stereo not shown) [Present compound (36), 2,6-Dimethyl-4-allylbenzyl 2',2'-dimethyl-3'-(2"-methyl-1",3"-butadienyl)-cyclopropanecarboxylate], the “LD50 (50 percent lethal dose)” value [1] is reported as 0.28 γ/larva and the LC50 [2] is reported as 390 µg/mL (≈ 1150 µM).

For `C=CC=CC1C(C(=O)OCc2coc(Cc3ccccc3)c2)C1(C)C` (stereo not shown) [Present compound (50), 5-Benzyl-3-furylmethyl 2',2'-dimethyl-3'-(1",3"-butadienyl)-cyclopropanecarboxylate], the “LD50 (50 percent lethal dose)” value [1] was 0.057 γ/larva and the LC50 [2] was 44 µg/mL (≈ 131 µM).

For `C=CC=CC1C(C(=O)OCc2c(C)cc(CC=C)cc2C)C1(C)C` (stereo not shown) [Present compound (93), 2,6-Dimethyl-4-allylbenzyl 2',2'-dimethyl-3'-(1",3"-butadienyl)-cyclopropanecarboxylate], the “LD50 (50 percent lethal dose)” value [1] was 0.21 γ/larva and the LC50 [2] was 230 µg/mL (≈ 709 µM).

In the case of `C#CCc1ccc(COC(=O)C2C(C=C(C)C=C)C2(C)C)cc1` (stereo not shown) [Present compound (8), 4-Propargylbenzyl 2',2'-dimethyl-3'-(2"-methyl-1",3"-butadienyl)-cyclopropanecarboxylate], the “LD50 (50 percent lethal dose)” value [1] is reported as 0.37 γ/larva and the LC50 [2] is reported as 500 µg/mL (≈ 1620 µM).

`CC=CC(C)=CC1C(C(=O)OCc2cccc(Oc3ccccc3)c2)C1(C)C` (stereo not shown) [Present compound (41), 3-Phenoxybenzyl 2',2'-dimethyl-3'-(2"-methyl-1",3"-pentadienyl)-cyclopropanecarboxylate] was tested, and the “LD50 (50 percent lethal dose)” value [1] was 0.48 γ/larva and the LC50 [2] was 100 µg/mL (≈ 266 µM).

For `C=CC(C)=CC1C(C(=O)OCC=C(Cl)Cc2ccccc2)C1(C)C` (stereo not shown) [Present compound (32), 3-Chloro-4-phenyl-2-butene-1-yl 2',2'-dimethyl-3'-(2"-methyl-1",3"-butadienyl)-cyclopropanecarboxylate], the “LD50 (50 percent lethal dose)” value [1] was 0.52 γ/larva and the LC50 [2] was 190 µg/mL (≈ 551 µM).

For `CC(C)=CC1C(C(=O)OCC=C(Cl)Cc2ccccc2)C1(C)C` (stereo not shown) [3-Chloro-4-phenyl-2-butene-1-yl chrysanthemate, reference compound], the “LD50 (50 percent lethal dose)” value [1] was 0.68 γ/larva and the LC50 [2] was 360 µg/mL (≈ 1080 µM).

In the case of `CC(C)=CC(C)=CC1C(C(=O)OCc2cccc(Oc3ccccc3)c2)C1(C)C` (stereo not shown) [Present compound (48), 3-Phenoxybenzyl 2',2'-dimethyl-3'-(2",4"-dimethyl-1",3"-pentadienyl)-cyclopropanecarboxylate], the “LD50 (50 percent lethal dose)” value [1] is reported as 0.56 γ/larva and the LC50 [2] is reported as 140 µg/mL (≈ 358 µM).

With `CC=CC=CC1C(C(=O)OCc2coc(Cc3ccccc3)c2)C1(C)C` (stereo not shown) [Present compound (51), 5-Benzyl-3-furylmethyl 2',2'-dimethyl-3'-(1",3"-pentadienyl)-cyclopropanecarboxylate] the “LD50 (50 percent lethal dose)” value [1] was 0.065 γ/larva and the LC50 [2] was 56 µg/mL (≈ 160 µM).

`CC(C)=CC1C(C(=O)OCc2ccc(Oc3ccccc3)o2)C1(C)C` (stereo not shown) [5-Phenoxyfurfuryl chrysanthemate, reference compound] was tested, and the “LD50 (50 percent lethal dose)” value [1] was 0.12 γ/larva and the LC50 [2] was 85 µg/mL (≈ 250 µM).

`C=CC=CC1C(C(=O)OCC=C(Cl)Cc2ccccc2)C1(C)C` (stereo not shown) [Present compound (90), 3-Chloro-4-phenyl-2-butene-1-yl 2',2'-dimethyl-3'-(1",3"-butadienyl)-cyclopropanecarboxylate] was tested, and the “LD50 (50 percent lethal dose)” value [1] was 0.43 γ/larva and the LC50 [2] was 170 µg/mL (≈ 514 µM).

`C#CCc1ccc(C(C#C)OC(=O)C2C(C=C(C)C)C2(C)C)o1` (stereo not drawn) [5-Propargyl-α-ethynylfurfuryl chrysanthemate, reference compound] was tested, and the “KT50 (50 percent knock down time)” value [3] was 120 s and the LC50 [2] was 260 µg/mL (≈ 838 µM).

With `C=CC=CC1C(C(=O)OCc2ccc(Oc3ccccc3)o2)C1(C)C` (stereo not shown) [Present compound (72), 5-Phenoxyfurfuryl 2',2'-dimethyl-3'-(1",3"-butadienyl)-cyclopropanecarboxylate] the “LD50 (50 percent lethal dose)” value [1] was 0.034 γ/larva and the LC50 [2] was 41 µg/mL (≈ 121 µM).

`C=CC=CC1C(C(=O)OCc2cc3c(o2)CCCC3)C1(C)C` (stereo not shown) [Present compound (68), 4,5-Tetramethylenefurfuryl 2',2'-dimethyl-3'-(1",3"-butadienyl)-cyclopropanecarboxylate] was tested, and the “LD50 (50 percent lethal dose)” value [1] was 0.26 γ/larva and the LC50 [2] was 110 µg/mL (≈ 366 µM).

`CC(C)=CC1C(C(=O)OCc2cccc(Oc3ccccc3)c2)C1(C)C` (stereo not shown) [3-Phenoxybenzyl chrysanthemate, reference compound] was tested, and the “LD50 (50 percent lethal dose)” value [1] was 0.72 γ/larva and the LC50 [2] was 170 µg/mL (≈ 485 µM).

`CC=CC(C)=CC1C(C(=O)OCc2coc(Cc3ccccc3)c2)C1(C)C` (stereo not shown) [Present compound (38), 5-Benzyl-3-furylmethyl 2',2'-dimethyl-3'-(2"-methyl-1",3"-pentadienyl)-cyclopropanecarboxylate] was tested, and the “LD50 (50 percent lethal dose)” value [1] was 0.102 γ/larva and the LC50 [2] was 66 µg/mL (≈ 181 µM).

For `C=CC=CC1C(C(=O)OCc2cccc(Cc3ccccc3)c2)C1(C)C` (stereo not shown) [Present compound (61), 3-Benzylbenzyl 2',2'-dimethyl-3"-(1",3"-butadienyl)-cyclopropanecarboxylate], the “LD50 (50 percent lethal dose)” value [1] was 0.50 γ/larva and the LC50 [2] was 90 µg/mL (≈ 260 µM).

`CC(C)=CC(C)=CC1C(C(=O)OCc2coc(Cc3ccccc3)c2)C1(C)C` (stereo not shown) [Present compound (44), 5-Benzyl-3-furylmethyl 2',2'-dimethyl-3'-(2",4"-dimethyl-1",3"-pentadienyl)-cyclopropanecarboxylate] was tested, and the “LD50 (50 percent lethal dose)” value [1] was 0.145 γ/larva and the LC50 [2] was 63 µg/mL (≈ 166 µM).

In the case of `C=CC(C)=CC1C(C(=O)OCc2ccc(Oc3ccccc3)o2)C1(C)C` (stereo not shown) [Present compound (14), 5-Phenoxyfurfuryl 2',2'-dimethyl-3'-(2"-methyl-1",3"-butadienyl)-cyclopropanecarboxylate], the “LD50 (50 percent lethal dose)” value [1] is reported as 0.040 γ/larva and the LC50 [2] is reported as 47 µg/mL (≈ 133 µM).

With `C=CC=CC1C(C(=O)OC(C#N)c2cccc(Oc3ccccc3)c2)C1(C)C` (stereo not drawn) [Present compound (80), 3-Phenoxy-α-cyanobenzyl 2',2'-dimethyl-3'-(1",3"-butadienyl)-cyclopropanecarboxylate] the “LD50 (50 percent lethal dose)” value [1] was 0.005 γ/larva and the LC50 [2] was 35 µg/mL (≈ 93.7 µM).

For `CC(C)=CC1C(C(=O)OCc2cccc(Cc3ccccc3)c2)C1(C)C` (stereo not shown) [3-Benzylbenzyl chrysanthemate, reference compound], the “LD50 (50 percent lethal dose)” value [1] was 1.20 γ/larva and the LC50 [2] was 270 µg/mL (≈ 775 µM).

For `C=CC=CC1C(C(=O)OCc2cccc(Oc3ccccc3)c2)C1(C)C` (stereo not shown) [Present compound (73), 3-Phenoxybenzyl 2',2'-dimethyl-3'-(1",3"-butadienyl)-cyclopropanecarboxylate], the “LD50 (50 percent lethal dose)” value [1] was 0.26 γ/larva and the LC50 [2] was 60 µg/mL (≈ 172 µM).

`C=CC(C)=CC1C(C(=O)OCc2cccc(Oc3ccccc3)c2)C1(C)C` (stereo not shown) [Present compound (15), 3-Phenoxybenzyl 2',2'-dimethyl-3'-(2"-methyl-1",3"-butadienyl)-cyclopropanecarboxylate] was tested, and the “LD50 (50 percent lethal dose)” value [1] was 0.29 γ/larva and the LC50 [2] was 68 µg/mL (≈ 188 µM).

With `C=CC(C)=CC1C(C(=O)OCc2cccc(Cc3ccccc3)c2)C1(C)C` (stereo not shown) [Present compound (4), 3-Benzylbenzyl 2',2'-dimethyl-3'-(2"-methyl-1",3"-butadienyl)-cyclopropanecarboxylate] the “LD50 (50 percent lethal dose)” value [1] was 0.71 γ/larva and the LC50 [2] was 110 µg/mL (≈ 305 µM).

`C#CCc1ccc(C(C#C)OC(=O)C2C(C=CC=C)C2(C)C)o1` (stereo not drawn) [Present compound (78), 5-Propargyl-α-ethynylfurfuryl 2',2'-dimethyl-3'-(1",3"-butadienyl)-cyclopropanecarboxylate] was tested, and the “KT50 (50 percent knock down time)” value [3] was 93 s and the LC50 [2] was 82 µg/mL (≈ 266 µM).

`CC(C)=CC=CC1C(C(=O)OCc2coc(Cc3ccccc3)c2)C1(C)C` (stereo not shown) [Present compound (52), 5-Benzyl-3-furylmethyl 2',2'-dimethyl-3'-(4"-methyl-1",3"-pentadienyl)-cyclopropanecarboxylate] was tested, and the “LD50 (50 percent lethal dose)” value [1] was 0.100 γ/larva and the LC50 [2] was 52 µg/mL (≈ 143 µM).
